Measured values published in US20070208031A1, “Substituted Diketopiperazines as Oxytocin Antagonists” (priority 2004, published 2007).

Assays:
[1] = In vitro intrinsic clearance in microsomes (Assay 3), dog; type: in vitro ADME; conditions: pH 7.4; heading: Assay 3 - Microsomal Cl; dog female microsomes, 0.5 uM compound, 0.5 mg/mL protein
Procedure: (§1) Determination of In Vitro Intrinsic Clearance in Microsomes
(§2) NADP regeneration buffer for use in incubations was prepared fresh on the assay day. It contained 7.8 mg glucose-6-phosphate (mono-sodium salt), 1.7 mg NADP and 6 Units glucose-6-phosphate dehydrogenase per 1 mL of 2% sodium bicarbonate. Microsomes (human, female; cynomolgus monkey, female; dog, female; rat, female) were prepared in pH 7.4 phosphate buffer and contained 0.625 mg protein/mL. Unless stated, all subsequent steps were performed by a Tecan Genesis 150/8 RSP. A 1.25 mM stock solution of the compounds was prepared in Acetonitrile/water (1:1). 25 ul of the 1.25 mM stock solution was added to 600 ul of Acetonitrile/water (1:1) to give a 50 uM solution. For each species, the 50 uM solutions (10 uL) were added to microsomes (790 uL) in a microplate (Porvair, 96 deepwell, square).
(§3) 400 uL of the microsomal solution containing the compound was transferred to a microplate (Porvair, 96 deepwell, round) and was pre-warmed at 37° C. for five minutes prior to initiation of incubations. All incubations were initiated by addition of 100 uL of NADP regeneration system to the pre-warmed microsomes. The mixtures were incubated at 37° C. in a Techne heating block. Following 0, 3, 6, 12 and 30 minutes incubation, 20 uL aliquots were taken and added to 100 uL of acetonitrile containing internal standard.
(§4) For determination of the rate of metabolism, incubations were performed at a compound concentration of 0.5 uM and a protein concentration of 0.5 mg/mL. The concentration of solvent in the incubation was 0.5%.
(§5) Test compound concentrations were determined by LC/MS/MS; results were reported as analyte:internal standard peak area ratios.
(§6) The rate of disappearance was calculated by fitting a single exponential decay to the concentration-time curve using Excel and intrinsic clearance was calculated using the following formula: [formula] Results

[2] = In vitro intrinsic clearance in microsomes (Assay 3), rat; type: in vitro ADME; conditions: pH 7.4; heading: Assay 3 - Microsomal Cl; rat female microsomes, 0.5 uM compound, 0.5 mg/mL protein
Procedure: as §1, §2, §3, §4, §5, §6

[3] = In vitro intrinsic clearance in microsomes (Assay 3), cynomolgus monkey; type: in vitro ADME; conditions: pH 7.4; heading: Assay 3 - Microsomal Cl, Cyno; cynomolgus monkey female microsomes, 0.5 uM compound, 0.5 mg/mL protein
Procedure: as §1, §2, §3, §4, §5, §6

[4] = In vitro intrinsic clearance in microsomes (Assay 3), human; type: in vitro ADME; conditions: pH 7.4; heading: Assay 3 - Microsomal Cl; human female microsomes, 0.5 uM compound, 0.5 mg/mL protein
Procedure: as §1, §2, §3, §4, §5, §6

[5] = target: T1, human recombinant oxytocin receptors (Homo sapiens, UniProt P30559); assay: Oxytocin binding assay, [3H]-oxytocin competition on CHO membranes (Assay 2); conditions: ~2.4 nM [3H]-oxytocin, Cheng-Prusoff, read-out: pKi (Assay 2) (converted)
T1 construct: expressed in transfected cells; host or cells: CHO cells (membrane preparation)
T1 sequence (P30559 1-389): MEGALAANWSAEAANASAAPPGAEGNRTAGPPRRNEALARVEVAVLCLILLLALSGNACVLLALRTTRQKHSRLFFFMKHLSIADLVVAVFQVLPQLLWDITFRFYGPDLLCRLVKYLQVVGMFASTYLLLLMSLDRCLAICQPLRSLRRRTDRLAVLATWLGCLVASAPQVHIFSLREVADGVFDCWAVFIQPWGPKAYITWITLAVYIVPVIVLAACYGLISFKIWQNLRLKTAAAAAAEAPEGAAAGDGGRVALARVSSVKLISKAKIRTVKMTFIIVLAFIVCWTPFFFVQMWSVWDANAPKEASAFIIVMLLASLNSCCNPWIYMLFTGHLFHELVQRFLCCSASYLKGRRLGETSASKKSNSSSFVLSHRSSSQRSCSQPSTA
Procedure: Membranes were prepared from CHO cells expressing human recombinant oxytocin receptors. The membrane preparation was frozen in aliquots at −70° C. until used.
Membranes (˜50 ug) were incubated in 200 ul of assay buffer (50 mM Tris, 10 mM MgCl2, and 0.1% bovine serum albumin, pH 7.5) containing ˜2.4 nM of [3H]-oxytocin in the absence (total binding) or presence (non-specific binding) of 1 uM unlabeled oxytocin and increasing concentrations of the compounds in Examples 1 and 2 or comparator compounds. Incubations were performed at room temperature for 60 minutes. The reactions were stopped with 3 ml of ice cold buffer and filtered through Whatman GF/C filter paper presoaked in 0.3% polyethylenimine. The filters were washed 4 times with 3 ml buffer using a Brandel cell harvester. The filters were counted in 3 ml Ready Safe scintillation fluid (Beckman).
Specific binding represented approximately 90% of total binding.
IC50 values were determined from competition binding experiments using non-linear regression analysis (GraphPad) and converted to Ki using the method of Cheng and Prusoff, 1974. Data are reported as mean values.

[6] = target: T2, recombinant human Oxytocin-1 (hOT) receptor (Homo sapiens, UniProt P30559); assay: Determination of antagonist affinity at human Oxytocin-1 receptors using FLIPR (Assay 1); type: cell-based; conditions: CHO-hOT cells, FLIPR calcium response, oxytocin at EC80; read-out: fpki (Assay 1)
T2 construct: expressed in transfected cells
T2 sequence (P30559 1-389): T1 sequence (P30559 1-389)
Procedure: Determination of Antagonist Affinity at Human Oxytocin-1 Receptors using FLIPR
Adherent Chinese Hamster Ovary (CHO) cells, stably expressing the recombinant human Oxytocin-1 (hOT) receptor, were maintained in culture in DMEM:F12 medium (Sigma, cat no D6421), supplemented with 10% heat inactivated foetal calf serum (Gibco/lnvitrogen, cat. no.01000-147), 2 mM L-glutamine (Gibco/lnvitrogen, cat. no. 25030-024) and 0.2 mg/ml G418 (Gibco/lnvitrogen, cat no. 10131-027). Cells were grown as monolayers under 95%:5% air:CO2 at 37° C. and passaged every 3-4 days using TrypLE™ Express (Gibco/lnvitrogen, cat no. 12604-013).
Measurement of [Ca^2+]1 using the FLIPR™
CHO-hOT cells were seeded into black walled clear-base 384-well plates (Nunc) at a density of 10,000 cells per well in culture medium as described above and maintained overnight (95%:5% air:CO2 at 37° C.). After removal of culture medium, cells were incubated for 1 h at 37° C. in Tyrode's medium (NaCl, 145 mM; KCl, 2.5 mM; HEPES, 10 mM; Glucose, 10 mM; MgCl2, 1.2 mM; CaCl2, 1.5 mM) containing probenacid (0.7 mg/ml), the cytoplasmic calcium indicator, Fluo-4 (4 uM; Teflabs, USA) and the quenching agent Brilliant Black (250 uM; Molecular Devices, UK). Cells were then incubated for an additional 30min at 37° C. with either buffer alone or buffer containing OT antagonist, before being placed into a FLIPR™ (Molecular Devices, UK) to monitor cell fluorescence (λex=488 nm, λEM=540 nm) before and after the addition of a submaximal concentration of oxytocin (EC80).
Functional responses using FLIPR were analysed using Activity Base Version 5.0.10.

Row | microsomal CLint at 0.5 uM [1] [mL/min/g] | microsomal CLint at 0.5 uM [2] [mL/min/g] | microsomal CLint at 0.5 uM [3] [mL/min/g] | microsomal CLint at 0.5 uM [4] [mL/min/g] | Ki [5] [nM] | Ki [6] [nM] | SMILES
1 | 16 to 20 | 9 to 15 | > 31 | > 31 |  |  | CC(C)C[C@@H]1C(=O)N[C@H](C2Cc3ccccc3C2)C(=O)N1[C@@H](C(=O)N(C)C)c1ccc2[nH]ncc2c1 [Comparator compound X, (2R)-2-[(3R,6R)-3-(2,3-dihydro-1H-inden-2-yl)-6-isobutyl-2,5-dioxopiperazin-1-yl]-2-(1H-indazol-5-yl)-N,N-dimethylethanamide, reference compound]
2 | 1 to 8 | 1 to 8 | 21 to 30 | 16 to 20 | 0.0398 to 0.126 | 2 to 3.16 | CC(C)C[C@@H]1C(=O)N[C@H](C2Cc3ccccc3C2)C(=O)N1[C@@H](C(=O)N(C)C)c1ccc(F)cc1F [Comparator compound Y, (2R)-2-(2,4-difluorophenyl)-2-[(3R,6R)-3-(2,3-dihydro-1H-inden-2-yl)-6-isobutyl-2,5-dioxopiperazin-1-yl]-N,N-dimethylethanamide, reference compound]
3 | 1 to 8 | 1 to 8 | 9 to 15 | 1 to 8 | 0.0398 to 0.126 | 2 to 3.16 | CC[C@H](C)[C@@H]1C(=O)N[C@H](C2Cc3ccccc3C2)C(=O)N1[C@@H](C(=O)NC)c1ccc2c(cnn2C)c1 [Example 1, (2R)-2-{(3R,6R)-3-(2,3-Dihydro-1H-inden-2-yl)-6-[(1S)-1-methylpropyl]-2,5-dioxo-1-piperazinyl}-N-methyl-2-(1-methyl-1H-indazol-5-yl)ethanamide]
4 | 1 to 8 | 1 to 8 | 9 to 15 | 1 to 8 | 0.0398 to 0.126 | 2 to 3.16 | CC[C@H](C)[C@@H]1C(=O)N[C@H](C2Cc3ccccc3C2)C(=O)N1[C@@H](C(=O)N(C)C)c1ccc2c(cnn2C)c1 [Example 2, (2R)-2-{(3R,6R)-3-(2,3-Dihydro-1H-inden-2-yl)-6-[(1S)-1-methylpropyl]-2,5-dioxo-1-piperazinyl}-N,N-dimethyl-2-(1-methyl-1H-indazol-5-yl)ethanamide]
